The source of these data is ChEMBL document CHEMBL1201862, “PubChem BioAssay data set” (2004).

The GI50 is the concentration at which growth is held to half of that of the control.

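Test compounds were applied to cells in 96-well plates for 48 hours at 5 doses. The concentration for 50% growth inhibition is given as GI50.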 Active and inactive are the calls of the source. Cut-off read from the data, not from the text of the source: active = GI50 up to about 1.1 µM and inactive = higher.

Assay in all cases: DTP human tumour cell line panel, 48 h
In test [1] the test system is SK-MEL-2.
The subject of test [2] is HCT-15.
Test [3] has as its system EKVX.
For test [4], the system named is HCC 2998.
Test [5] concerns NCI-H522.
Test [6] concerns RPMI-8226.
Test [7] deals with BT-549.
Test [8] deals with U-251.
Test [9] relates to SK-MEL-5.
Test [10] has as its system MOLT-4.
Test [11] has as its system UACC-62.
For test [12], the system named is UACC-257.
Test [13] relates to UO-31.
Test [14] has as its system MDA-MB-435.
The test system of test [15] is SN12C.
In test [16] the test system is NCI/ADR-RES.
Test [17] relates to SF-539.
For test [18], the system named is K562.
Test [19] deals with OVCAR-4.
Test [20] deals with HL-60.

`COc1ccc(N[S+]([O-])c2ccc(OC)cc2)cc1` (stereo not given): the GI50 is 16.9 µM (inactive) in test [1]; 11.2 µM in [2]; 88.1 µM (inactive) in test [3]; 41.3 µM (inactive) in [4]; 21.5 µM (inactive) in test [5]; 47 µM (inactive) in [6]. In addition, the GI50 was 14.8 µM (inactive) in test [7]; 12.5 µM (inactive) in test [8]; 18.8 µM (inactive) in test [9]; 35.4 µM (inactive) in [10]; 14.6 µM (inactive) in test [11]; 69 µM (inactive) in test [12]. Moreover, the GI50 in [13] was 12.5 µM (inactive); in test [14], 15.9 µM (inactive); in test [15] it was > 100 µM (inactive); in test [16], 56.6 µM (inactive); in [17], 14.6 µM (inactive); in test [18], 26.1 µM (inactive). The GI50 is > 100 µM (inactive) in test [19] and 41.2 µM (inactive) in [20].

`OC1[C@H](O)CN(OCc2ccccc2)C[C@@H]1O` (stereo not given in full): the GI50 in [1] is > 100 µM (inactive); in test [2], over 100 µM; in test [3], > 100 µM (inactive); in test [4], > 100 µM (inactive); in test [5] it was > 100 µM (inactive); in [6] it was > 100 µM (inactive). For the same compound, the GI50 in test [7], in [8], in test [9], in test [10], in [11] and in test [12] was > 100 µM (inactive) in each case. The GI50 in test [13], in [14], in test [15], in [16], in test [17] and in [18] was > 100 µM (inactive) each time. Besides, the GI50 in test [19] and in test [20] was > 100 µM (inactive) throughout.

Regarding `CC(=O)C1=C(C)N(c2ccccc2)C2(O)C3=C(C(=O)c4ccccc4C3=O)C(O)=CC12Cl` (stereo not given), the GI50 in [1] is 5.07 µM (inactive); in test [2] it was 3.73 µM; in test [3], 8.51 µM (inactive); in test [4] it was 4.63 µM (inactive); in test [5], 2.55 µM (inactive); in test [6] it was 0.855 µM (active). The GI50 in test [7] was 8.11 µM (inactive); in test [8], 4.76 µM (inactive); in test [9], 2.91 µM (inactive); in test [10] it was 3.13 µM (inactive); in [11] it was 13 µM (inactive); in test [12] it was 4.71 µM (inactive). Also, the GI50 in test [13] was 5.07 µM (inactive); in test [14], 2.32 µM (inactive); in test [15], 4.46 µM (inactive); in test [16], 3.73 µM (inactive); in test [17], 4.09 µM (inactive); in test [18], 6.04 µM (inactive). For the same compound, the GI50 in [19] was 3.08 µM (inactive); in test [20], 2.9 µM (inactive).

As for `CCN(CC)CCn1ccc(=O)c2cc3c(=O)ccn(CCN(CC)CC)c3c(C)c21`, the GI50 in [1] was 11.6 µM (inactive); in test [2] it was 3.38 µM; in test [3] it was 5.77 µM (inactive); in test [4], 1.44 µM (inactive); in [5] it was 6.37 µM (inactive); in test [6], 2.1 µM (inactive). Moreover, the GI50 was 14.5 µM (inactive) in test [7]; 5.89 µM (inactive) in test [8]; 15.7 µM (inactive) in [9]; 0.525 µM (active) in test [10]; 15.4 µM (inactive) in test [11]; 16.7 µM (inactive) in test [12]. Also, the GI50 in test [13] is 5.07 µM (inactive); in test [14], 4.65 µM (inactive); in [15] it was 5.65 µM (inactive); in test [16] it was 1.41 µM (inactive); in test [17], 11.2 µM (inactive); in test [18] it was 2.77 µM (inactive). For the same compound, the GI50 in test [19] is 2.02 µM (inactive); in [20] it was 1.42 µM (inactive).

As to `OC1(c2ccccc2)CCN(Cc2c[nH]c3ccccc23)CC1`, the GI50 in test [1] is 18 µM (inactive); in test [2] it was 49.5 µM; in test [3] it was > 100 µM (inactive); in [4], 17.8 µM (inactive); in test [5], > 100 µM (inactive); in test [6] it was 39.5 µM (inactive). The GI50 is > 100 µM (inactive) in test [7]; 64.4 µM (inactive) in test [8]; 36.3 µM (inactive) in [9]; 39.2 µM (inactive) in test [10]; 47.8 µM (inactive) in test [11]; 18.3 µM (inactive) in [12]. Moreover, the GI50 was 31 µM (inactive) in test [13]; 37.2 µM (inactive) in [14]; > 100 µM (inactive) in [15]; > 100 µM (inactive) in test [16]; 79.3 µM (inactive) in test [17]; 33.2 µM (inactive) in test [18]. In addition, the results for the GI50 in test [19] and in [20] were > 100 µM (inactive) and 48.2 µM (inactive), respectively.

Take `N#Cc1nc(C#N)c(N)[nH]1`: the GI50 in test [1] is > 100 µM (inactive); in test [2] it was over 100 µM; in test [3], > 100 µM (inactive); in test [4], > 100 µM (inactive); in test [5] it was > 100 µM (inactive); in test [6], > 100 µM (inactive). In addition, the GI50 in [7], in test [8], in test [9], in [10], in [11] and in test [12] was > 100 µM (inactive) in each case. In addition, the GI50 in test [13], in test [14], in [15], in test [16], in test [17] and in test [18] was > 100 µM (inactive) throughout. For the same compound, the GI50 in test [19] and in test [20] was > 100 µM (inactive) each time.

For the compound `Cc1ccc(S(=O)(=O)c2c(O)c3ccc(O)c(C)c3oc2=O)cc1`, the GI50 in [1] is > 100 µM (inactive); in test [2], over 100 µM; in test [3], > 100 µM (inactive); in test [4], > 100 µM (inactive); in test [5], > 100 µM (inactive); in test [6] it was > 100 µM (inactive). Also, the GI50 in test [7], in test [8], in test [9], in test [10], in [11] and in test [12] was > 100 µM (inactive) in each case. Also, the GI50 in test [13], in test [14], in test [15], in test [16], in test [17] and in [18] was > 100 µM (inactive) in each case. The GI50 in [19] is > 100 µM (inactive); in test [20], 23.4 µM (inactive).

As to `COc1cc(/C=N/N=C2NCCCCN2)ccc1O`, the GI50 in test [1] was > 100 µM (inactive); in test [2], over 100 µM; in test [3], > 100 µM (inactive); in test [4], > 100 µM (inactive); in [5] it was > 100 µM (inactive); in test [6] it was > 100 µM (inactive). Besides, the GI50 in test [7] was > 100 µM (inactive); in test [8], > 100 µM (inactive); in test [9], 40 µM (inactive); in test [10], > 100 µM (inactive); in test [11], > 100 µM (inactive); in test [12], > 100 µM (inactive). Moreover, the GI50 in test [13] was > 100 µM (inactive); in test [14] it was > 100 µM (inactive); in [15], > 100 µM (inactive); in test [16], > 100 µM (inactive); in [17], > 100 µM (inactive); in test [18] it was 58.7 µM (inactive). In addition, the GI50 in test [19] and in test [20] was > 100 µM (inactive) each time.

In the case of `CC(=O)Nc1cc2cc(NS(=O)(=O)c3cc(C(F)(F)F)cc(C(F)(F)F)c3)ccc2oc1=O`, the GI50 in test [1] was > 100 µM (inactive); in [2], over 100 µM; in [3], > 100 µM (inactive); in test [4], > 100 µM (inactive); in test [5], > 100 µM (inactive); in test [6], > 100 µM (inactive). Moreover, the GI50 in test [7] was > 100 µM (inactive); in test [8] it was 28.7 µM (inactive); in test [9], > 100 µM (inactive); in [10] it was > 100 µM (inactive); in test [11], > 100 µM (inactive); in test [12], > 100 µM (inactive). The GI50 in test [13] is > 100 µM (inactive); in [14] it was > 100 µM (inactive); in test [15] it was > 100 µM (inactive); in [16], > 100 µM (inactive); in test [17] it was 29.4 µM (inactive); in [18] it was > 100 µM (inactive). Further, the GI50 in [19] and in [20] was > 100 µM (inactive) throughout.

Take `CN(C)CCn1c(=O)c2ccc(NCCNCCO)c3c(=O)c4cc(O)ccc4n(c1=O)c23`: the GI50 in test [1] was 1.9 µM (inactive); in test [2], 5.31 µM; in test [3], 2.58 µM (inactive); in test [4], 0.661 µM (active); in test [5], 0.281 µM (active); in [6], 1.18 µM (inactive). The GI50 was 10.9 µM (inactive) in test [7]; 0.931 µM (active) in [8]; 1.49 µM (inactive) in test [9]; 0.229 µM (active) in test [10]; 1.47 µM (inactive) in test [11]; 4.43 µM (inactive) in test [12]. For the same compound, the GI50 in test [13] is 3.05 µM (inactive); in test [14], 2.39 µM (inactive); in [15], 0.308 µM (active); in test [16], 17.1 µM (inactive); in test [17], 0.367 µM (active); in test [18], 0.991 µM (active). In addition, the 50% growth inhibitory concentration (GI50) in [19] was 0.895 µM (active); in test [20], 1.47 µM (inactive).
